From patent US5583227A, “Antiulcer compounds having a substituted alkynyl or quinoxaline nucleus and methods of making thereof” (Mochida Pharmaceutical Co. Ltd., priority 1994, dated 1996) come the findings set out here.

Where two headings read alike, the source gives them in different places.

The target in data set [1] is T1, H^+,K^+ adenosine triphosphatase (Sus scrofa, UniProt P19156).
T1 construct: hog stomach was homogenized and subjected to ultracentrifugation to obtain a microsome fraction; from tissue; host or cells: hog stomach, microsome fraction (discontinuous Ficoll gradient)
T1 sequence (P19156 2-1034 limits assumed): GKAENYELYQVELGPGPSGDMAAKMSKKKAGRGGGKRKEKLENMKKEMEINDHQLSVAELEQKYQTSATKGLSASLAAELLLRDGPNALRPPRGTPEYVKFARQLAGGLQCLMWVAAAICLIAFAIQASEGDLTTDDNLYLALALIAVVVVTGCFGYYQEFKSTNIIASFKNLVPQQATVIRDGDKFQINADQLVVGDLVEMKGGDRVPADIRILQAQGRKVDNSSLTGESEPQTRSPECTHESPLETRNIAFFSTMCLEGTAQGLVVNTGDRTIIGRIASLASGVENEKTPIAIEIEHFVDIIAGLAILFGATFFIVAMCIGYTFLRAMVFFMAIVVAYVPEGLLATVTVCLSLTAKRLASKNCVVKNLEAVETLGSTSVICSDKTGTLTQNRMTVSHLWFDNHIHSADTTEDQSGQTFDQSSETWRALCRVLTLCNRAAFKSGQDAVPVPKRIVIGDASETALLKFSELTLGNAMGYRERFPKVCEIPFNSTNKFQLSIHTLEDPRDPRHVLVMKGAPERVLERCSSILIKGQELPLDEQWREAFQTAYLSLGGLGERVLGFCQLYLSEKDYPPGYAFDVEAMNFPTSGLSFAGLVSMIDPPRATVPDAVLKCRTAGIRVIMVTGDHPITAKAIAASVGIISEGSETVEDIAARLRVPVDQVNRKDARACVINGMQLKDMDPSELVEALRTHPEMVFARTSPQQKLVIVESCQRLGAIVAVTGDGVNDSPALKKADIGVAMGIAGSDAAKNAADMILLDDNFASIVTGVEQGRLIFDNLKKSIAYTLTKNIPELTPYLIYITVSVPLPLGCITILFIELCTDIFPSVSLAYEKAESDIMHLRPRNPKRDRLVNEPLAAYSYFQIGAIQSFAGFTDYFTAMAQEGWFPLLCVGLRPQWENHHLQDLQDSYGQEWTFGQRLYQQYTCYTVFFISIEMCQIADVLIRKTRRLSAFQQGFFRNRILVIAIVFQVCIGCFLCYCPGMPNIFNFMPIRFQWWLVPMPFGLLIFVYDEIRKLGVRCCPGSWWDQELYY
T1 sequence (P18434 whole entry partner): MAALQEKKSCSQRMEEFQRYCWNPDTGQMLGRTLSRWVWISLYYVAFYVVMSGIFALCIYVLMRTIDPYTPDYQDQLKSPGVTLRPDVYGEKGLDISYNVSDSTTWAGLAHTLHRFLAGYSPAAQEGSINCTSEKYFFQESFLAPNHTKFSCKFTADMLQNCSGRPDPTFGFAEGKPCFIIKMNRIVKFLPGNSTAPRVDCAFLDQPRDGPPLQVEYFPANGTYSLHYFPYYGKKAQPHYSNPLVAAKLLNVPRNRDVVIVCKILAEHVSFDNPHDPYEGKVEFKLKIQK
Briefly: H+,K+ adenosine triphosphatase inhibition (proton pump inhibition). It counts as biochemical, hog. The protocol:
Proton pump inhibition was evaluated by the H^+,K^+ adenosine triphosphatase (to be referred to as "H^+,K^+ ATPase" hereinafter)inhibition.
That is, hog stomach was homogenized and subjected to ultracentrifugation to obtain a microsome fraction, and the microsomes were subjected to discontinuous density gradient ultracentrifugation using 0 and 9% Ficoll solutions to obtain a fraction containing H^+,K^+ ATPase. The H^+,K^+ ATPase activity was determined by measuring the released inorganic phosphorus using ATP as the substrate and an inorganic phosphorus measuring reagent PiSET(IATRON) manufactured by IATRON.

For data set [2], the system named is Stress ulcer. As to the kind of experiment: Stress ulcer. The data set is classed as in vivo, Wistar male rats. Particulars: Rattus norvegicus; oral, 7 hours stress loading in water bath at 23° C.; read-out: Antiulcer activity, Stress ulcer, ED50 value. As for the experimental part: (Test Example 3) Stress ulcer
Basically according to the method of Takagi et al. (Japanese Journal of Pharmacology (to be referred to as "Japan. J. Pharmacol." hereinafter), vol.18, pp.9-18, each of the compounds shown in Examples was orally administered to Wistar male rats which have been subjected to fasting of 24 hours (free drinking). Each rat was transferred into a stress cage 30 minutes thereafter and subjected to stress loading by suspending the cage in a water bath controlled at 23° C. to such a depth that the rat was soaked up to its breast.
After 7 hours of the stress loading, the rat was recovered from the water bath to excise the stomach. The length (mm) of each ulcer developed in the stomach was measured under a stereoscopic microscope, and the total length of ulcers per one animal was used as an ulcer index. The dose of each test compound required to inhibit 50% of the ulcer index of the control group was calculated (ED50). The results are shown in Table 3, together with the results of the following pylorus ligation ulcer test.

The subject of data set [3] is gastric acid secretion. Briefly: Gastric acid secretion inhibition activity (pylorus-ligated, histamine-stimulated rats). The data set is classed as in vivo, Sprague-Dawley (SD) male rats. Particulars: Rattus norvegicus; 30 mg/kg oral; pylorus ligated 3 hours later; histamine hydrochloride 30 mg/kg s.c.; total acidity over 3 hours; read-out: Acid secretion inhibition rate (%). The protocol:
(Test Example 2) Gastric acid secretion inhibition activity
Basically according to the method of Satoh et (Journal of Pharmacology and Experimental Therapeutics, vol.248, pp.806-815, 1988), each of the compounds shown in Examples was orally administered at a dose of 30 mg/kg to Sprague-Dawley (SD) male rats which have been subjected to fasting of 24 hours (free drinking).
After 3 hours of the compound administration, the pylorus of each rat was ligated under urethane anesthesia, and 30 mg of histamine hydrochloride per Kg was administered to the rat by subcutaneous injection. After 3 hours of the ligation, the gastric juice was collected to measure its volume and calculate total acidity (mEqH^+ /3 hours) by sodium hydroxide titration. The inhibition rate (%) was calculated by the following formula in which A represents the total gastric juice acidity of control group rat and B represents the total gastric juice acidity of test compound-administered group rat. [formula]

A short description of data set [4]: Acute toxicity test. Particulars: mouse, in vivo; oral, mice, one week observation. An excerpt:
(Test Example 6) Acute toxicity test
Each of the compounds shown in Examples was orally administered to three ICR male mice per group.

Data set [5] deals with Pylorus ligation ulcer. Briefly: Pylorus ligation ulcer. The data set is classed as in vivo, Wistar male rats. Particulars: Rattus norvegicus; oral, 14 hours after pylorus ligation; read-out: Antiulcer activity, Pylorus ligation ulcer, ED50 value. The protocol: (Test Example 4) Pylorus ligation ulcer
Basically according to the method of Shay et al. (Gastroenterology, vol.5, pp.43-61, 1945), each of the compounds shown in Examples was orally administered to Wistar male rats which have been subjected to fasting of 48 hours (free drinking). After 30 minutes of the compound administration,the pylorus of each rat was ligated.
After 14 hours of standing, the stomach was excised. The length and width of each ulcer developed in the fore-stomach part were measured under a stereoscopic microscope to calculate the ulcer area (length×width). In accordance with the method of Takagi et al. (Japan. J. Pharmacol., vol.24, pp.357-361, 1974), ulcer index was calculated based on the total ulcer area per animal. The dose of each test compound required to inhibit 50% of the ulcer index of the control group was calculated (ED50).

Setting [6] is: H+,K+ ATPase fraction from hog stomach microsomes, ATP substrate, released inorganic phosphorus, read-out: Enzyme inhibition IC50 value (converted).

For `COC(=O)c1nc(C#CC(C)OC)c(C#CC(C)OC)nc1C(=O)OC` (centres unmarked) [Example 53], the IC50 (usually the concentration that inhibits the measured activity by half) in data set [1] (setting [6]) is 5.27 µM. For the molecule `CCOC(C)C#Cc1nc2ccccc2nc1Cl` (centres unmarked) [Example 29, 2-chloro-3-(3-ethoxy-1-butynyl)quinoxaline], the IC50 in data set [1] (setting [6]) was 215 µM. For the molecule `COCCCC#Cc1nc(C(=O)OC)c(C(=O)OC)nc1C#CCCCOC` [Example 2, 5,6-bis(5-methoxy-1-pentynyl)pyrazine-2,3-dicarboxylic acid dimethyl ester], the ED50 (usually the dose that gives a 50% effect, or the effect in half of the subjects) turned out to be 60 mg/kg in data set [2] and 66 mg/kg in data set [5]. In data set [3], the inhibition in vivo at 30 mg/kg was 66%. In addition, in data set [4], the LD50 (in general, the dose at which mortality reaches 50%) at 168 h was more than 1000 mg/kg. Take `CCC(C#Cc1nc2ccccc2nc1C#CC(CC)OCCC(=O)OC)OCCC(=O)OC` (centres unmarked) [Example 123]: the IC50 in data set [1] (setting [6]) was 87.9 µM.

As to `CCOCCO[C@H](C#Cc1nc2ccccc2nc1C#C[C@@H](CC)OCCOCC)CC` [Example 25, 2-((R)-3-(2-ethoxyethoxy)-1-pentynyl)-3-((S)-3-(2-ethoxyethoxy)-1-pentynyl)quinoxaline], the IC50 in data set [1] (setting [6]) was 34.2 µM. With `COCCC#Cc1nc2ccccc2nc1C#CCCOC` [Example 12, 2,3-bis(4-methoxy-1-butynyl)quinoxaline], in data set [1] (setting [6]), the IC50 is 279 µM. The ED50 in data set [2] turned out to be 24 mg/kg. The inhibition in vivo at 30 mg/kg in data set [3] came to 41%. In addition, the median lethal dose (LD50) at 168 h in data set [4] was more than 1000 mg/kg. Turning to `CCCCC#Cc1nc(C#N)c(C#N)nc1C#CCCCC` [Example 89], the IC50 in data set [1] (setting [6]) is 0.344 µM. In the case of `CCC#Cc1nc(C(=O)OC)c(C(=O)OC)nc1C#CC(C)OC` (centres unmarked) [Example 62], the IC50 in data set [1] (setting [6]) is 5.15 µM. The inhibition in vivo at 30 mg/kg in data set [3] came out at 69%. In the case of `COC1(C#Cc2nc3ccccc3nc2C#CC2(OC)CCCC2)CCCC1` [Example 26, 2,3-bis(2-(1-methoxycyclopentyl)ethynyl)quinoxaline], the IC50 in data set [1] (setting [6]) is 32 µM. Regarding `CC[C@H](C#Cc1nc2ccccc2nc1C#C[C@@H](CC)OCCOC)OCCOC` [Example 19, 2,3-bis((R)-3-(2-methoxyethoxy)-1-pentynyl)quinoxaline], in data set [3], the inhibition in vivo at 30 mg/kg is 28%.

For the molecule `COCCOCC#Cc1nc2ccc(OC)cc2nc1C#CCOCCOC` [Example 133], the IC50 in data set [1] (setting [6]) was 20.8 µM. The inhibition in vivo at 30 mg/kg in data set [3] worked out at 44%. In the case of `COC(C)C#Cc1nc(C#N)c(C#N)nc1C#CC(C)OC` (centres unmarked) [Example 73], the IC50 in data set [1] (setting [6]) was 1.7 µM.

`CCCC#Cc1nc(C#N)c(C#N)nc1C#CCCOC` [Example 77]: the IC50 in data set [1] (setting [6]) was 1.44 µM. For the same molecule, the inhibition in vivo at 30 mg/kg in data set [3] was 55%. As for `CCOC(=O)c1nc(C#CCOC)c(C#CCOC)nc1C(=O)OCC` [Example 69], in data set [3], the inhibition in vivo at 30 mg/kg came to 70%. In the case of `COC(=O)c1nc(C#CC(OC)OC)c(C#CC(OC)OC)nc1C(=O)OC` [Example 59], the IC50 in data set [1] (setting [6]) was 8.92 µM. For the same molecule, the ED50 in data set [2] came out at 18 mg/kg; in data set [5], 21 mg/kg. The inhibition in vivo at 30 mg/kg in data set [3] came to 79%. Besides, the LD50 at 168 h in data set [4] was more than 1000 mg/kg. As to `CCC(C#Cc1nc2cccc(C)c2nc1C#CC(CC)OCCOC)OCCOC` (centres unmarked) [Example 144], the IC50 in data set [1] (setting [6]) is 28.3 µM.

For the molecule `CCOCCOC(C)(C)C#Cc1nc2ccc(Cl)cc2nc1C#CC(C)(C)OCCOCC` [Example 159, 6-chloro-2,3-bis(3-(2-ethoxyethoxy)-3-methyl-1-butynyl)quinoxaline], the IC50 in data set [1] (setting [6]) was 16.7 µM. Same read-out and setting: in the case of `CSCCC#Cc1nc(C#N)c(C#N)nc1C#CCCSC` [Example 95] it was 0.613 µM. As for `CCOC(C)C#Cc1nc2cc(OC)c(OC)cc2nc1C#CC(C)OCC` (centres unmarked) [Example 145], in data set [1] (setting [6]), the IC50 was 25.1 µM.

In the case of `CCCOCC#Cc1nc(C(=O)O)c(C(=O)O)nc1C#CCOCCC` [Example 5, 5,6-bis(3-n-propoxy-1-propynyl)pyrazine-2,3-dicarboxylic acid], the inhibition in vivo at 30 mg/kg in data set [3] stood at 61%.

Turning to `CCOCCO[C@H](C#Cc1nc2ccccc2nc1C#C[C@H](CC)OCCOCC)CC` [Example 22, 2,3-bis((S)-3-(2-ethoxyethoxy)-1-pentynyl)quinoxaline], in data set [1] (setting [6]), the IC50 was 29.6 µM. In turn, `CCCCC#Cc1nc(C#N)c(C#N)nc1C(=O)OCC` [Example 101] had an IC50 in data set [1] of 5.31 µM.

`CCOCC#Cc1nc2ccccc2nc1C#CCOCC` [Example 108] yielded an LD50 at 168 h in data set [4] of more than 1000 mg/kg. With `CC[C@@H](C#Cc1nc2ccccc2nc1C#C[C@H](CC)OCCOC)OCCOC` [Example 18, 2,3-bis((S)-3-(2-methoxyethoxy)-1-pentynyl)quinoxaline], in data set [1] (setting [6]), the IC50 is 124 µM. On to `CCOC(C)C#Cc1nc2ccc(C(C)=O)cc2nc1C#CC(C)OCC` (centres unmarked) [Example 33, 6-acetyl-2,3-bis(3-ethoxy-1-butynyl)quinoxaline], for which the IC50 in data set [1] (setting [6]) was 9.88 µM. Also, the inhibition in vivo at 30 mg/kg in data set [3] was 23%. Regarding `CCCOCCOC(C)(C)C#Cc1nc2ccccc2nc1C#CC(C)(C)OCCOCCC` [Example 158, 2,3-bis(3-(2-n-propoxyethoxy)-3-methyl-1-butynyl)quinoxaline], in data set [1] (setting [6]), the IC50 was 17.1 µM. With `CC[C@@H](C#Cc1nc2ccccc2nc1C#C[C@@H](CC)OCCOC)OCCOC` [Example 21, 2-((R)-3-(2-methoxyethoxy)-1-pentynyl)-3-((S)-3-(2-methoxyethoxy)-1-pentynyl)quinoxaline], the 50% inhibitory concentration (IC50) in data set [1] (setting [6]) is 102 µM. On to `CCOC(C#Cc1nc2ccccc2nc1C#CC(CC)OCC)CC` (centres unmarked) [Example 115], for which the LD50 at 168 h in data set [4] is more than 1000 mg/kg. With `COC(C)C#Cc1nc2ccccc2nc1C#CC(C)OC` (centres unmarked) [Example 111], the IC50 in data set [1] (setting [6]) is 9.17 µM.

For `CCOC(C)C#Cc1nc2ccc(OC)cc2nc1C#CC(C)OCC` (centres unmarked) [Example 129], the IC50 in data set [1] (setting [6]) was 25.3 µM. As for `COCC#Cc1nc2ccccc2nc1C#CCOC` [Example 107], the ED50 in data set [2] amounted to 29 mg/kg; in data set [5], 30 mg/kg.

`COCCOC(C)C#Cc1nc(C(=O)OC)c(C(=O)OC)nc1C#CC(C)OCCOC` (centres unmarked) [Example 56]: in data set [1] (setting [6]), the IC50 is 13.4 µM. The ED50 in data set [2] was 12 mg/kg; in data set [5], 17 mg/kg. Besides, the inhibition in vivo at 30 mg/kg in data set [3] amounted to 80%. On to `CCC(C#Cc1cnc2ccccc2n1)OCCOC` (centres unmarked) [Example 127], for which the IC50 in data set [1] (setting [6]) is 326 µM. For `CCCOCC#Cc1nc(C(=O)OC)c(C(=O)OC)nc1C#CCOCCC` [Example 1, 5,6-bis(3-n-propoxy-1-propynyl)pyrazine-2,3-dicarboxylic acid dimethyl ester], the IC50 in data set [1] (setting [6]) was 87.5 µM. For the same molecule, the inhibition in vivo at 30 mg/kg in data set [3] came to 50%. The same molecule registered an LD50 at 168 h in data set [4] of more than 1000 mg/kg. Also, in data set [5], the ED50 was 28 mg/kg. In data set [1], `CCCCC#Cc1nc(C#N)c(C#N)nc1C(F)(F)F` [Example 102] gave an IC50 of 3.95 µM. The molecule `COCCOCC#Cc1nc2ccccc2nc1C(C)(C)C` [Example 30, 2-t-butyl-3-(3-(2-methoxyethoxy)-1-propynyl)quinoxaline] gave an IC50 in data set [1] of 60.3 µM. Consider `CCOCCOC(C#Cc1nc2ccc(CO)cc2nc1C#CC(CC)OCCOCC)CC` (centres unmarked) [Example 151], for which the IC50 in data set [1] (setting [6]) was 18.6 µM.

Regarding `CCOC(C)(C)C#Cc1nc2ccccc2nc1C#CC(C)(C)OCC` [Example 13, 2,3-bis(3-ethoxy-3-methyl-1-butynyl)quinoxaline], the IC50 in data set [1] (setting [6]) is 31.4 µM. On to `CCOCCOC(C)C#Cc1nc2ccccc2nc1C#CC(C)OCCOCC` (centres unmarked) [Example 113], for which the LD50 at 168 h in data set [4] was more than 1000 mg/kg. Consider `CCOCCO[C@@H](C#Cc1nc2ccccc2nc1C#C[C@@H](CC)OCCOCC)CC` [Example 23, 2,3-bis((R)-3-(2-ethoxyethoxy)-1-pentynyl)quinoxaline], for which the IC50 in data set [1] (setting [6]) was 54.7 µM. Still for that read-out and setting: next, `CCOC(C)C#Cc1nc2cccc(OC)c2nc1C#CC(C)OCC` (centres unmarked) [Example 140]: 34 µM.
